This is an account of results in patent US9045491B2, “Thienyl [3,2-D] pyrimidin-4-one compounds, preparation method, pharmaceutical compositions and use thereof” (SHANGHAI INSTITUTE OF MATERIA MEDICA, CHINESE ACADEMY OF …, priority 2011, dated 2015).

Holding throughout (assay type): biochemical
Assay [1] addresses dipeptidyl peptidase 7 (DPP 7) (Homo sapiens, UniProt Q9UHL4). The experiment in a line: DPP 7 activity screening. To be noted: N.I. = No Inhibition. The essentials: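 Sample dissolved in DMSO, final DMSO kept at a level not affecting activity; tested at a single concentration from preliminary screening (e.g. 20 μg/mL). Dose-response data fitted to sigmoidal variable-slope model with bottom and top fixed at 0 and 100.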

Assay [2] deals with T1, human DPP 8 (Homo sapiens, UniProt Q6V1X1).
T1 construct: made in house; host or cells: insect cells, baculovirus Bac-to-Bac
The assay can be described thus: DPP 8 activity screening (Ala-Pro-AMC fluorescence). The note with it: N.I. = No Inhibition. The essentials: (§1)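 Insect-cell baculovirus-expressed human enzymes hydrolyse Ala-Pro-AMC; AMC release monitored kinetically as fluorescence rate (ex 355/em 460 nm). Primary screen at a single concentration (e.g. 20 μg/mL); dose–response fitted to variable-slope sigmoid with bottom/top fixed at 0 and 100.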

Assay [3] has as its target T2, FAP (Homo sapiens, UniProt Q12884).
T2 sequence (Q12884 1-760): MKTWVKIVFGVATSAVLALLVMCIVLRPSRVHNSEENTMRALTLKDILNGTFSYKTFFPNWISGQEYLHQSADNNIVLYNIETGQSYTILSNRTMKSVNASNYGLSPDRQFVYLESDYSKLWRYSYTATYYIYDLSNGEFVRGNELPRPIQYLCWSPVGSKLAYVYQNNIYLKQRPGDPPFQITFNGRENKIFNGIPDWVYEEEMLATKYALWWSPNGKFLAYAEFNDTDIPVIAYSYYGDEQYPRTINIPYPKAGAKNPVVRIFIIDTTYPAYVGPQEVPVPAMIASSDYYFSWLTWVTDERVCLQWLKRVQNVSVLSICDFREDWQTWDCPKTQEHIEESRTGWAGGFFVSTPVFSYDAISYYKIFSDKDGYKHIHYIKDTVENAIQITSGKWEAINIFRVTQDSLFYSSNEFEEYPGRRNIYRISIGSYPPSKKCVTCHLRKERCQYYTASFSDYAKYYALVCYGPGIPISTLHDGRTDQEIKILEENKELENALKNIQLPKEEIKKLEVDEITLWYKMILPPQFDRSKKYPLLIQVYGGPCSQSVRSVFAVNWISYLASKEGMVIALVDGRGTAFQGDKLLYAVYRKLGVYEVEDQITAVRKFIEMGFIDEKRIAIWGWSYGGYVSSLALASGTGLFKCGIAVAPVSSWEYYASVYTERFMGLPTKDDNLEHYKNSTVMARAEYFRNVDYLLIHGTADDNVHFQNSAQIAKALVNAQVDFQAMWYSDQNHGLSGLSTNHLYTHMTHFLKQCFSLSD
The experiment in a line: FAP inhibition (Table 1). To be noted: N.I. = No Inhibition.

For assay [4], the target named is T3, Human DPP 9 (Homo sapiens, UniProt Q86TI2).
T3 construct: made in house; host or cells: insect cells, baculovirus Bac-to-Bac
The experiment in a line: DPP 9 activity screening (Ala-Pro-AMC fluorescence). To be noted: N.I. = No Inhibition. The procedure, abridged: as §1

Assay [5] has as its target T4, human DPP IV (Homo sapiens, UniProt P27487).
T4 construct: extracellular fragment of protease DPP IV (aa29-766); made in house; host or cells: baculovirus expression system Bac-to-Bac
The assay can be described thus: DPP IV activity screening (Ala-Pro-AMC fluorescence). The essentials: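 DPP IV activity is taken as the linear rate of fluorescence change at 460 nm. Samples are dissolved in DMSO and screened at a single concentration (e.g. 20 μg/mL). Dose-response data are fit to a variable-slope sigmoidal model with bottom and top fixed at 0 and 100.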

T4 sequence (P27487 29-766): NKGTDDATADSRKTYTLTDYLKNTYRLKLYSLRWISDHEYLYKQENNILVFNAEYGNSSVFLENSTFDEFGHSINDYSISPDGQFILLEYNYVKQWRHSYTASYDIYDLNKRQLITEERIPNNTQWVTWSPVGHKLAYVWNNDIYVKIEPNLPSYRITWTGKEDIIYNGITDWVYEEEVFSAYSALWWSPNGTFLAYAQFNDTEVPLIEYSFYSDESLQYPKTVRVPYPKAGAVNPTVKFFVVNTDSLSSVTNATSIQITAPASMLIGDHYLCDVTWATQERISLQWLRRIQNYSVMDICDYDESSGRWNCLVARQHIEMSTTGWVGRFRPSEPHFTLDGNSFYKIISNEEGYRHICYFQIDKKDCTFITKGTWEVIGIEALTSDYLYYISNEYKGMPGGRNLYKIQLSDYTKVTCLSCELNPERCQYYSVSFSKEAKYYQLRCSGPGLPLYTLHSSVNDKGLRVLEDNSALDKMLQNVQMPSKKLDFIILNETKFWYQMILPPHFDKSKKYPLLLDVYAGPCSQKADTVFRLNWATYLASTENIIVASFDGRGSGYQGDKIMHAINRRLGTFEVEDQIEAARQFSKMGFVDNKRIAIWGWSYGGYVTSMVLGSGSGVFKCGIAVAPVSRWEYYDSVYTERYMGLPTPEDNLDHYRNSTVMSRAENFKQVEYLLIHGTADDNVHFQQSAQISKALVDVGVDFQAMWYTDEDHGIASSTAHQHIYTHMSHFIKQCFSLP
T3 sequence (Q86TI2 whole entry): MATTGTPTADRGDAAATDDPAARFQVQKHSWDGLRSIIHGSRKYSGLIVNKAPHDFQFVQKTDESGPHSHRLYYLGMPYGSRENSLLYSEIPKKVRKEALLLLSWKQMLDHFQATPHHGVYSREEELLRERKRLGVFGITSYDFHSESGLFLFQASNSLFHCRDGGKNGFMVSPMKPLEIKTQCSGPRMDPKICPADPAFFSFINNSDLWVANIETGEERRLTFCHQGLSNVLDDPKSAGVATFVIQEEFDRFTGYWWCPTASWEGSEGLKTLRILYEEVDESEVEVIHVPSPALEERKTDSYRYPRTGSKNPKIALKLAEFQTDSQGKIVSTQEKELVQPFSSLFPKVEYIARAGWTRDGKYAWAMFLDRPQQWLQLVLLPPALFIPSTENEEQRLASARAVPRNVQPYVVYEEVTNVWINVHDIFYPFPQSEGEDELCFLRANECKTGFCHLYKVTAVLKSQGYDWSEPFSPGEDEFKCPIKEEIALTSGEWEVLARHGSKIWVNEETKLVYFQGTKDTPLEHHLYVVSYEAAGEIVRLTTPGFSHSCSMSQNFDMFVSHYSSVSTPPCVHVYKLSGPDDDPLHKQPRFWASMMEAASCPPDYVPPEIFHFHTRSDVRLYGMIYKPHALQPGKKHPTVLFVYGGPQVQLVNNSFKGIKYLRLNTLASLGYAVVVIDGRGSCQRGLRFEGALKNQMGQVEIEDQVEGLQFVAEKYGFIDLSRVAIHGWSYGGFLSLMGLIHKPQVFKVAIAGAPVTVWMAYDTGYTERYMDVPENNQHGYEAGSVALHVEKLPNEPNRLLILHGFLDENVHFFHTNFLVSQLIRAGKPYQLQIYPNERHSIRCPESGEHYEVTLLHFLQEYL
T1 sequence (Q6V1X1 whole entry): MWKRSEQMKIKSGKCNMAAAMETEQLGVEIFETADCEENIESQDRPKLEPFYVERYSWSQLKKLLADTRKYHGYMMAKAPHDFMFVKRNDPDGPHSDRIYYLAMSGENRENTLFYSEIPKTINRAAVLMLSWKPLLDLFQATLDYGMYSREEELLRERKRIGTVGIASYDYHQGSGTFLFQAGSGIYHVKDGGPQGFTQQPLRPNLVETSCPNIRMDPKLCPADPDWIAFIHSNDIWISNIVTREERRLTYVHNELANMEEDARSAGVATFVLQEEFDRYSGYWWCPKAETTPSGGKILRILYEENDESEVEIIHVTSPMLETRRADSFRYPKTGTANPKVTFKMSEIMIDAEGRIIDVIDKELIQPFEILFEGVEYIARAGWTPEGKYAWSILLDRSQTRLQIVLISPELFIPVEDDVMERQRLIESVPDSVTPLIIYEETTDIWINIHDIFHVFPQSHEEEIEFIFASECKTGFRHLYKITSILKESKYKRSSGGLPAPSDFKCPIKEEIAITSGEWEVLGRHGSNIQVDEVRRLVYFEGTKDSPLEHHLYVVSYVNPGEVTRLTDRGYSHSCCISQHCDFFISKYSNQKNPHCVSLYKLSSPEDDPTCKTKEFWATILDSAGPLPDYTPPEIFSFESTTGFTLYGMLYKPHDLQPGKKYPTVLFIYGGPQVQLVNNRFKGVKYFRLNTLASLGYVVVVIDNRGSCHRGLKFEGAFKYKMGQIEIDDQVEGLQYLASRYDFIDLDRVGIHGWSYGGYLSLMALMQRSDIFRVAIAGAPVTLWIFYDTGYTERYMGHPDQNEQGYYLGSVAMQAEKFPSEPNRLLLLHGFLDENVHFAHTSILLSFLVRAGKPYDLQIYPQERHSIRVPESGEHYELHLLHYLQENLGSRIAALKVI

`COC(=O)[C@H](Cc1ccc(O)cc1)NC(=O)c1cc2nc(N3CCC[C@@H](N)C3)n(Cc3ccccc3C#N)c(=O)c2s1` [Compound 101, (S)-methyl 2-(2-((R)-3-aminopiperidin-1-yl)-3-(2-cyanobenzyl)-4-oxo-3,4-dihydrothieno[3,2-d]pyrimidine-6-carboxamido)-3-(4-hydroxyphenyl)-propanoate]: the “DPP 7 IC50” value in assay [1] is on record as “N.I”. Moreover, the half-maximal inhibitory concentration (IC50) is 13.5 µM in assay [2], 42 µM in assay [3], 14.8 µM in assay [4] and 0.0306 µM in assay [5].
Regarding `Cc1ccc(CNC(=O)c2csc3c(=O)n(Cc4ccccc4C#N)c(N4CCC[C@@H](N)C4)nc23)cc1` [Compound 64, (R)-2-(3-aminopiperidin-1-yl)-3-(2-cyanobenzyl)-N-(4-methylbenzyl)-4-oxo-3,4-dihydrothieno[3,2-d]-pyrimidine-7-carboxamide], the IC50 turned out to be 52 µM in assay [1]; 5.81 µM in assay [2]; 9.38 µM in assay [3]; 39.7 µM in assay [4]; 0.0332 µM in assay [5].
For the compound `CNC(=O)c1csc2c(=O)n(Cc3ccccc3C#N)c(N3CCC[C@@H](N)C3)nc12` [Compound 61, (R)-2-(3-aminopiperidin-1-yl)-3-(2-cyanobenzyl)-N-methyl-4-oxo-3,4-dihydrothieno[3,2-d]pyrimidine-7-carboxamide], the “DPP 7 IC50” value in assay [1] is reported as “N.I”. The 50% inhibitory concentration (IC50) amounted to 45.9 µM in assay [2], 30.3 µM in assay [3], 254 µM in assay [4] and 0.0139 µM in assay [5].
As for `N#Cc1ccccc1Cn1c(N2CCC[C@@H](N)C2)nc2cc(C(=O)NC3CC3)sc2c1=O` [Compound 40, (R)-2-(3-aminopiperidin-1-yl)-3-(2-cyanobenzyl)-N-cyclopropyl-4-oxo-3,4-dihydrothieno[3,2-d]pyrimidine-6-carboxamide], in assay [1], the “DPP 7 IC50” value is listed as “N.I”. Further, in assay [2], the “DPP 8 IC50” value is on record as “N.I”. For the same compound, the IC50 in assay [3] was 213 µM; in assay [4] it was 266 µM; in assay [5], 0.0183 µM.
Turning to `Cl.N#Cc1ccccc1Cn1c(N2CCC[C@@H](N)C2)nc2cc(C(=O)O)sc2c1=O` [Compound 39, (R)-2-(3-aminopiperidin-1-yl)-3-(2-cyanobenzyl)-4-oxo-3,4-dihydrothieno-[3,2-d]pyrimidine-6-carboxylic acid hydrochloride], the “DPP 7 IC50” value in assay [1] was “N.I”. Further, in assay [2], the “DPP 8 IC50” value was “N.I”. Besides, the “FAP IC50” value in assay [3] is “N.I”. Moreover, in assay [4], the “DPP 9 IC50” value is given as “N.I”. Moreover, in assay [5], the IC50 was 0.0283 µM.
With `COC(=O)[C@@H](NC(=O)c1csc2c(=O)n(Cc3ccccc3C#N)c(N3CCC[C@@H](N)C3)nc12)c1ccccc1` [Compound 66, (S)-methyl 2-(2-((R)-3-aminopiperidin-1-yl)-3-(2-cyanobenzyl)-4-oxo-3,4-dihydrothieno[3,2-d]pyrimidine-7-carboxamido)-2-phenylacetate], the “DPP 7 IC50” value in assay [1] is listed as “N.I”. Further, the half-maximal inhibitory concentration (IC50) amounted to 14.4 µM in assay [2], 18.8 µM in assay [3], 47.1 µM in assay [4] and 0.0358 µM in assay [5].
`N#Cc1ccccc1Cn1c(N2CCC[C@@H](N)C2)nc2c(C(=O)NCCO)csc2c1=O` [Compound 60, (R)-2-(3-aminopiperidin-1-yl)-3-(2-cyanobenzyl)-N-(2-hydroxyethyl)-4-oxo-3,4-dihydrothieno[3,2-d]-pyrimidine-7-carboxamide]: in assay [1], the “DPP 7 IC50” value is recorded as “N.I”. Moreover, the IC50 in assay [2] came to 36.8 µM; in assay [3], 57.1 µM; in assay [4], 110 µM; in assay [5], 0.0133 µM.
In the case of `N#Cc1ccccc1Cn1c(N2CCC[C@@H](N)C2)nc2c(C(=O)NC3CCOCC3)csc2c1=O` [Compound 81, (R)-2-(3-aminopiperidin-1-yl)-3-(2-cyanobenzyl)-4-oxo-N-(tetrahydro-2H-pyran-4-yl)-3,4-dihydrothieno[3,2-d]-pyrimidine-7-carboxamide], the “DPP 7 IC50” value in assay [1] is “N.I”. Moreover, the IC50 in assay [2] was 59.4 µM; in assay [3], 44 µM; in assay [4] it was 348 µM; in assay [5], 0.0202 µM.
`N#Cc1ccccc1Cn1c(N2CCC[C@@H](N)C2)nc2c(CN3CCOCC3)csc2c1=O` [Compound 55, (R)-2-((2-(3-aminopiperidin-1-yl)-7-(morpholinomethyl)-4-oxothieno-[3,2-d]pyrimidin-3(4H)-yl)methyl)-benzonitrile]: in assay [1], the “DPP 7 IC50” value is reported as “N.I”. Also, the “DPP 8 IC50” value in assay [2] is reported as “N.I”. In addition, the “FAP IC50” value in assay [3] is on record as “N.I”. Also, the “DPP 9 IC50” value in assay [4] is “N.I”. Moreover, the IC50 in assay [5] is 0.0178 µM.
With `COCCNC(=O)c1cc2nc(N3CCC[C@@H](N)C3)n(Cc3ccccc3C#N)c(=O)c2s1` [Compound 111, (R)-2-(3-aminopiperidin-1-yl)-3-(2-cyanobenzyl)-N-(2-methoxyethyl)-4-oxo-3,4-dihydrothieno[3,2-d]-pyrimidine-6-carboxamide], the “DPP 7 IC50” value in assay [1] is recorded as “N.I”. Further, the values for the IC50 in assay [2], in assay [4] and in assay [5] were 112 µM, 131 µM and 0.0189 µM, respectively. In addition, in assay [3], the “FAP IC50” value is “N.I”.
Consider `CC(=O)OCc1cc2nc(N3CCC[C@@H](N)C3)n(Cc3ccccc3C#N)c(=O)c2s1` [Compound 96, (R)-(2-(3-aminopiperidin-1-yl)-3-(2-cyanobenzyl)-4-oxo-3,4-dihydrothieno-[3,2-d]pyrimidin-6-yl)methyl acetate], for which the “DPP 7 IC50” value in assay [1] is given as “N.I”. Also, in assay [2], the “DPP 8 IC50” value is “N.I”. Besides, in assay [3], the “FAP IC50” value was “N.I”. Moreover, the “DPP 9 IC50” value in assay [4] is on record as “N.I”. The same compound displayed an IC50 in assay [5] of 0.0116 µM.
Regarding `CNC(=O)c1cc2nc(N3CCC[C@@H](N)C3)n(Cc3ccccc3C#N)c(=O)c2s1` [Compound 104, (R)-2-(3-aminopiperidin-1-yl)-3-(2-cyanobenzyl)-N-methyl-4-oxo-3,4-dihydrothieno[3,2-d]pyrimidine-6-carboxamide], the “DPP 7 IC50” value in assay [1] is “N.I”. Moreover, the “DPP 8 IC50” value in assay [2] is listed as “N.I”. Further, the results for the IC50 in assay [3], in assay [4] and in assay [5] were 239 µM, 254 µM and 0.0171 µM, respectively.
Take `COC(=O)[C@H](Cc1ccccc1)NC(=O)c1cc2nc(N3CCC[C@@H](N)C3)n(Cc3ccccc3C#N)c(=O)c2s1` [Compound 102, (S)-methyl 2-(2-((R)-3-aminopiperidin-1-yl)-3-(2-cyanobenzyl)-4-oxo-3,4-dihydrothieno[3,2-d]pyrimidine-6-carboxamido)-3-phenylpropanoate]: the “DPP 7 IC50” value in assay [1] is “N.I”. Moreover, the IC50 is 27.8 µM in assay [2], 68.5 µM in assay [3], 32.6 µM in assay [4] and 0.0384 µM in assay [5].
Consider `N#Cc1ccccc1Cn1c(N2CCC[C@@H](N)C2)nc2c(C(=O)N3CCCC3)csc2c1=O` [Compound 76, (R)-2-((2-(3-aminopiperidin-1-yl)-4-oxo-7-(pyrrolidine-1-carbonyl)thieno-[3,2-d]pyrimidin-3(4H)-yl)methyl)-benzonitrile], for which, in assay [1], the “DPP 7 IC50” value was “N.I”. Also, in assay [2], the “DPP 8 IC50” value is “N.I”. Further, in assay [3], the “FAP IC50” value is given as “N.I”. Further, the “DPP 9 IC50” value in assay [4] is listed as “N.I”. Further, the IC50 in assay [5] is 0.0816 µM.
